According to ChEMBL document CHEMBL5729101, “CaMKII inhibitors and uses thereof” (2022):

Assay: In Vitro CaMKIIδ Activity Assay: The inhibition of CaMKII activity was evaluated using a coupled assay measuring ADP released following ATP hydrolysis and phosphor-transfer to the peptide substrate AC3 (KKALHRQETVDAL; SEQ ID NO: 1) (1). A full length, C-terminal His/Gln tagged CaMKIIδ construct was used.

| Compound | IC50 |
| --- | --- |
| NCCCOc1cccc(-c2ccnc3[nH]c4ccccc4c23)c1 | < 0.1 µM |
| Cc1ccc2c(c1)[nH]c1nccc(-c3cccc(NCCN)c3)c12 | < 0.1 µM |
| C(=C\c1ccnc2[nH]c3ccccc3c12)/CN1CCNCC1 | in the range around 55 µM |
| Clc1cncc(-c2ccnc3[nH]c4ccccc4c23)c1 | in the range around 55 µM |
| c1ccc2c(c1)[nH]c1nccc(-c3cnc(N4CCNCC4)s3)c12 | in the range around 55 µM |
| c1ccc2c(c1)[nH]c1nccc(-c3cnn(C4CCNCC4)c3)c12 | in the range around 55 µM |
| Cc1ccc2[nH]c3nccc(-c4cccc(NCCN)c4)c3c2c1 | < 0.1 µM |
| NCc1cccc(-c2ccnc3[nH]c4ccccc4c23)c1 | in the range around 55 µM |
| Cc1nn(C2CCNCC2)cc1-c1ccnc2[nH]c3ccccc3c12 | in the range around 55 µM |
| c1cc(-c2ccnc3[nH]c4ccccc4c23)cc(-n2ccnc2)c1 | in the range around 55 µM |
| c1cc(-c2ccnc3[nH]c4ccccc4c23)nc(N2CCNCC2)c1 | < 0.1 µM |
| COc1ccc2c(c1)[nH]c1nccc(-c3cccc(NCCN)c3)c12 | < 0.1 µM |
| NCCOc1cccc(-c2ccnc3[nH]c4ccccc4c23)c1 | < 0.1 µM |
| NCCNc1cccc(-c2ccnc3[nH]c4ccccc4c23)c1 | < 0.1 µM |
| NCCCNc1cccc(-c2ccnc3[nH]c4ccccc4c23)c1 | < 0.1 µM |
| c1ccc2c(c1)[nH]c1nccc(-n3cc(C4CCNCC4)nn3)c12 | in the range around 55 µM |
| NCCNc1cccc(-c2ccnc3[nH]c4ccc(Cl)cc4c23)c1 | < 0.1 µM |
| C(=C/c1ccnc2[nH]c3ccccc3c12)/CN1CCNCC1 | in the range around 55 µM |
| Clc1cnccc1-c1ccnc2[nH]c3ccccc3c12 | in the range around 55 µM |
